Laboratory results reported in US20220401407A1, “REGULATION OF THE SLEEP/WAKE CYCLE USING C[…]” (Demetrix, Inc., priority 2021, published 2022).
“Also recorded” adds a separate entry of the source.

Tests used:
Format in all cases: cell-based
HCRTR2 [1] = target: T1, HCRTR2 (Homo sapiens, UniProt O43614); experiment: PathHunter β-Arrestin GPCR antagonist assay, HCRTR2; details: for HCRTR2 (Antagonist) percent inhibition: antagonist mode, agonist challenge at EC80
T1 sequence (O43614 1-444): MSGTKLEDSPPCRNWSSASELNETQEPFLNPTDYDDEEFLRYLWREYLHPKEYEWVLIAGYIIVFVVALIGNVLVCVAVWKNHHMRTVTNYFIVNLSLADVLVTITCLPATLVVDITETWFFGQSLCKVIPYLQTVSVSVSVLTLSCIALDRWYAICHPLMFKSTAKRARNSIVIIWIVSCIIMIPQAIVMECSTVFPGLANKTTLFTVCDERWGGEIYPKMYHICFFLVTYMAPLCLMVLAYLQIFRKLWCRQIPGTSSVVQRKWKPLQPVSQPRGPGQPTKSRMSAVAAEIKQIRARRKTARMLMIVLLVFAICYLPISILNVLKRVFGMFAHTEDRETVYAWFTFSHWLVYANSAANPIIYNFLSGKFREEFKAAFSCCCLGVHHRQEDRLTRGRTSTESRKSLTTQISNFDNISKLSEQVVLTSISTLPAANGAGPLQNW
Method: (§1) To evaluate the role specific cannabinoid compounds may play on the sleep/wake cycle, a GPCR reactivity assay was performed to determine the reactivity of 19 cannabinoid compounds to the orexin receivers HCRTR1 and HCRTR2. The evaluated cannabinoid compounds were: CBN, THCV, CBDVA, CBG, CBL, CBC, CBDV, CBDA, CBD, CBGA, (+)-CBD, CBG-C4, CBD-C1, CBD-C2, CBGV, CBGA-C4, CBGVA, CBCA, and CBLA. Orexin A was used as the control for HCRTR1 and HCRTR2.
(§2) To perform the GPCR reactivity assay, a commercial GPCR assay, PathHunter® β-Arrestin from Eurofins DiscoverX Products (Fremont, Calif.), was used. […] At activation of the GPCR receptor and recruitment of β-arrestin, complementation of the peptide fragments occurs and restores β-galactosidase activity. The amount of β-galactosidase activity is then measurable using chemiluminescent reagents.
(§3) In each of the two antagonist assays, PathHunter® cell lines were removed from a freezer stock and seeded at a volume of 20 μL into white walled, 384-well microplates and incubated at 37° C. Each cell was pre-incubated with an antagonist followed by an agonist challenge at the EC80 concentration. Cells were then diluted to generate a 5× sample in assay buffer. 5 μL of the 5× sample was then added to cells and incubated at 37° C. for 30 minutes. Finally, 5 μL of 6×EC80 agonist in assay buffer were added to the cells and incubated at 37° C. for 90 minutes or 180 minutes. The assay signal was generated through addition of 12.5 μL or 15 μL (50% V/V) of a detection reagent cocktail followed by a one hour incubation time at room temperature. Microplates were read following signal generation with a PerkinElmer Envision™ (PerkinElmer Inc., Waltham, Mass.) for chemiluminescent signal detection. Reactivity was analyzed using the CBIS data analysis suite (ChemInnovation, CA) where RLU refers to the raw measured values. The percent inhibition was calculated using the formula: % Inhibition=100%*(1−mean RLU of test sample−mean RLU of control)/(mean RLU of EC80 control−mean RLU of vehicle control).
(§4) For agonist activity, the percent activity is depicted while for antagonist activity, the percent inhibition is depicted.

dopamine receptor DRD5 = dopamine receptor DRD5 (Homo sapiens, UniProt P21918); experiment: PathHunter β-Arrestin GPCR agonist assay, DRD5; parameters: DRD5 (Agonist) percent activity: concentration or dose not given beside the values; details: agonist mode; dopamine as control
From the text: as §2
(§5) A total of four assays were run. Agonist assays were run for each of HCRTR1 and HCRTR2 and antagonist assays were run for HCRTR1 and HCRTR2. In each of the two agonist assays, PathHunter® cell lines were removed from a freezer stock and seeded at a volume of 20 μL into white walled, 384-well microplates and incubated at 37° C. Each cell was incubated with a sample to induce a response and then diluted to generate a 5× sample in assay buffer. 5 μL of the 5× sample was then added to cells and incubated at 37° C. for 90 or 180 minutes. The final assay concentration was 1%. The assay signal was generated through addition of 12.5 μL or 15 μL (50% V/V) of a detection reagent cocktail followed by a one hour incubation time at room temperature. Microplates were read following signal generation with a PerkinElmer Envision™ (PerkinElmer Inc., Waltham, Mass.) for chemiluminescent signal detection. Reactivity was analyzed using the CBIS data analysis suite (ChemInnovation, CA) where RLU refers to the raw measured values. The percent activity was then calculated using the formula: % Activity=100%*(mean RLU of test sample−mean RLU of control)/(mean max control ligand−mean RLU of vehicle control).
Table 2 depicts the results of evaluating the cannabinoid compounds to act as an agonist for the dopamine receptor DRD5. The same experimental procedure as used for HCRTR1 and HCRTR2 agonist testing (Table 1) was followed with the substitution of dopamine as the control for the DRD5 receptor.

HCRTR2 [2] = target: T1, HCRTR2; experiment: PathHunter β-Arrestin GPCR agonist assay, HCRTR2; parameters: concentration or dose not given beside the values; details: agonist mode; Orexin A as control
Method: as §1, §2, §5, §4

HCRTR1 [3] = target: T2, HCRTR1 (Homo sapiens, UniProt O43613); experiment: PathHunter β-Arrestin GPCR agonist assay, HCRTR1; parameters: concentration or dose not given beside the values; details: agonist mode; Orexin A as control
T2 sequence (O43613 1-425): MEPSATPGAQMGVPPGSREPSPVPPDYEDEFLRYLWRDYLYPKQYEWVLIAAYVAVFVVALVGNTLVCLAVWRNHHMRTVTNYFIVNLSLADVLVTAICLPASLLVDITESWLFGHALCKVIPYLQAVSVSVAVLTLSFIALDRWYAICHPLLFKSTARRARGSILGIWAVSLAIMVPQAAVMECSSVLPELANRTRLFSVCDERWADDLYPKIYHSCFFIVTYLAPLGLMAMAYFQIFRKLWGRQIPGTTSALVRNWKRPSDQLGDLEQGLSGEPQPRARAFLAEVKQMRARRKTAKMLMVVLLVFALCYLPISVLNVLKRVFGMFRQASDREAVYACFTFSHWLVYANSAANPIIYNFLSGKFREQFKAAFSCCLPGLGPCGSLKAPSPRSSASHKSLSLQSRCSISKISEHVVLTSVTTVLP
Method: as §1, §2, §5, §4

HCRTR1 [4] = target: T2, HCRTR1; experiment: PathHunter β-Arrestin GPCR antagonist assay, HCRTR1; details: for HCRTR1 (Antagonist) percent inhibition: antagonist mode, agonist challenge at EC80
Method: as §1, §2, §3, §4

Chain of dopamine receptor DRD5 (P21918 whole entry): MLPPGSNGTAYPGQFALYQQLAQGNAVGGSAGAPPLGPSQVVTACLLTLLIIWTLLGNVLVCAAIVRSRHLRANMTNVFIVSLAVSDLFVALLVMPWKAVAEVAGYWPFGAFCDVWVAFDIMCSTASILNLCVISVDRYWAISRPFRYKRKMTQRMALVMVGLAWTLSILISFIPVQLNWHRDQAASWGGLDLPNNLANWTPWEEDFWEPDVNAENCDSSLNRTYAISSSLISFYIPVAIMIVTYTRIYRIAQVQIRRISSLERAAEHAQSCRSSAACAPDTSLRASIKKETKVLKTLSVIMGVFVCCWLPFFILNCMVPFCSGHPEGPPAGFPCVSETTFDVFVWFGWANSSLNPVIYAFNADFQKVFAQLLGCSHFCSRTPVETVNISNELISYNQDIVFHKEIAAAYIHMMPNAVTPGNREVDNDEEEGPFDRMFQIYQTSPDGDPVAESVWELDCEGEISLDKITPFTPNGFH

SMILES | antagonist effect on HCRTR2 (in words) (HCRTR2 [1]) | HCRTR2 (Antagonist) percent inhibition (HCRTR2 [1]) | DRD5 (Agonist) percent activity (dopamine receptor DRD5) | HCRTR2 (Agonist) percent activity (HCRTR2 [2]) | HCRTR1 (Agonist) percent activity (HCRTR1 [3]) | antagonist effect on HCRTR1 (in words) (HCRTR1 [4]) | HCRTR1 (Antagonist) percent inhibition (HCRTR1 [4])
CCCCCc1cc(O)c2c(c1)OC(C)(CCC=C(C)C)C=C2 (stereo not shown) [CBC, cannabichromene] | antagonist effect; also recorded: acted as an antagonist | 96% | 22% | 3% | 0% | antagonist effect; also recorded: acted as an antagonist | 98%
CCCCCc1cc2c(c(O)c1C(=O)O)C=CC(C)(CCC=C(C)C)O2 (stereo not shown) [CBCA, cannabichromenic acid] | do not demonstrate meaningful activity | 17% | 1% | 1% | 3% | do not demonstrate meaningful activity | 12%
C=C(C)[C@@H]1CCC(C)=C[C@H]1c1c(O)cc(CCCCC)cc1O [CBD, cannabidol] | antagonist effect; also recorded: acted as an antagonist | 85% | 27% | 5% | 1% | antagonist effect; also recorded: acted as an antagonist | 96%
C=C(C)[C@@H]1CCC(C)=C[C@H]1c1c(O)cc(C)cc1O [CBD-C1, cannabidiorcol] | do not demonstrate meaningful activity | 9% | 0% | 1% | 3% | do not demonstrate meaningful activity | 12%
C=C(C)[C@@H]1CCC(C)=C[C@H]1c1c(O)cc(CC)cc1O [CBD-C2, cannabidol-C2] | do not demonstrate meaningful activity | 13% | 1% | 1% | 2% | do not demonstrate meaningful activity | 20%
C=C(C)[C@@H]1CCC(C)=C[C@H]1c1c(O)cc(CCCCC)c(C(=O)O)c1O [CBDA, cannabidiolic acid] | do not demonstrate meaningful activity | 10% | 5% | 0% | 1% | do not demonstrate meaningful activity | 2%
C=C(C)[C@@H]1CCC(C)=C[C@H]1c1c(O)cc(CCC)cc1O [CBDV, cannabidivarin] | demonstrate activity against only HCRTR1; also recorded: did not act as antagonists | 18% | 7% | 0% | 0% | demonstrate activity against only HCRTR1; also recorded: acted as antagonists | 61%
C=C(C)[C@@H]1CCC(C)=C[C@H]1c1c(O)cc(CCC)c(C(=O)O)c1O [CBDVA, cannabidivarinic acid] | do not demonstrate meaningful activity | 10% | 4% | 0% | 0% | do not demonstrate meaningful activity | 7%
CCCCCc1cc(O)c(C/C=C(\C)CCC=C(C)C)c(O)c1 [CBG, cannabigerol] | antagonist effect; also recorded: acted as an antagonist | 68% | 9% | 4% | 3% | antagonist effect; also recorded: acted as an antagonist | 98%
CCCCc1cc(O)c(CC=C(C)CCC=C(C)C)c(O)c1 [CBG-C4, cannabigerol butyl] | antagonist effect; also recorded: acted as an antagonist | 45% | 6% | 6% | 4% | antagonist effect; also recorded: acted as an antagonist | 84%
CCCCCc1cc(O)c(C/C=C(\C)CCC=C(C)C)c(O)c1C(=O)O [CBGA, cannabigerolic acid] | do not demonstrate meaningful activity | 14% | 0% | 1% | 1% | do not demonstrate meaningful activity | 8%
CCCCc1cc(O)c(C/C=C(\C)CCC=C(C)C)c(O)c1C(=O)O [CBGA-C4, cannabigerolic acid butyl] | do not demonstrate meaningful activity | 10% | 0% | 1% | 3% | do not demonstrate meaningful activity | 2%
CCCc1cc(O)c(C/C=C(\C)CCC=C(C)C)c(O)c1 [CBGV, cannabigerivarin] | demonstrate activity against only HCRTR1; also recorded: did not act as antagonists | 12% | 6% | 2% | 4% | demonstrate activity against only HCRTR1; also recorded: acted as antagonists | 44%
